Assay [1] addresses T1, SRIF receptor (GH4 C1 membranes) (Rattus norvegicus, UniProt P30680).
T1 construct: GH4 C1 rat pituitary tumor cells; endogenous in cells; host or cells: GH4 C1 rat pituitary tumor cells (isolated membranes)
The assay is described as follows: Scatchard analysis of [^125 I]-labelled ligand binding to GH4 C1 membranes (FIG. 5). The note with it: read-out: dissociation constant (KD). On the procedure: 1. Standard Binding Assays--Binding assays are done in a binding buffer containing 50 mM HEPES (pH 7.4), 0.5% BSA and 5 mM MgCl2. The standard assay for [^125 I]SRIF analog binding to GH4 CL membranes, done in 96 well microtiter plates (Dynatech Immulon II Removawell plates), is carried out as follows: 1. Radioligand is diluted in binding buffer+PMSF/Baci to the desired cpm per vol. of 50 μl and then 50 μl aliquots are added to the wells. For non-specific binding samples, 5 μl of 40 μM cold S14 is also added per well. 2. Binding is initiated by adding 150 μl per well of membrane diluted to the desired concentration (10-30 ug membrane protein/well) in binding buffer+PMSF/Baci. Plates are then covered with Linbro mylar plate sealers (Flow Labs) and placed on a Dynatech Microshaker II and binding is allowed to proceed at room temperature for 1-2 hours. Binding is stopped by centrifuging the plate for 15 minutes at 2,000×g. The supernatants are dumped off and membrane pellets washed once by addition of 200 μl of ice cold binding buffer, brief shaking and recentrifugation. Finally the individual wells are placed in 12×75 mm tubes and counted in an LKB Gammamaster counter (78% efficiency). Specific binding by this method is identical to that measured when free ligand is removed by rapid (3-5 seconds) filtration and washing on polyethyleneimine-coated glass fiber filters.
3. […]

In assay [2] the test system is somatostatin receptor (GH4 C1 membranes). The assay is described as follows: Binding, CHAPS solubilization and recovery of SRIF receptor:[^125 I]Tyr11-S14 complex (FIG. 1, Table 1). The arrangement: species or system rat. As to conditions: for CPM recovered, B. Nonspecific: 10^-6 M cold S14; for CPM recovered, A. Total: without cold S14. The procedure:
FIG. 1 illustrates separation of receptor-bound and free [^125 I]Tyr11-S14. Radioligand is bound to GH4 C1 membranes as described in "Materials and Methods". The binding incubations contain 2 mg membrane protein and 6×10^6 cpm of radioligand in 8 ml. A non-specific binding sample is identical except for the addition of 1 uM cold S14. Initial cpm bound were 1.43×10^6 (total) and 0.65×10^6 (non-specific). After the binding step, membranes are resuspended at 1 […] in the presence of 1% CHAPS detergent in a buffer containing 25 mM Tris (pH 8), 10% glycerol and 0.2 mM CaCl2 (solubilization buffer). A protease inhibitor cocktail ("100×4 pase" described in "Materials and Methods") is also added as 1% of final volume. Solubilization is allowed to proceed for 1 hour on ice, and then the mixture is centrifuged for 30 minutes at 100,000×g. CPM in the 100,000×g supernatant were 0.61×10^6 (total) and 0.29×10^6 (non-specific). Free [^125 I]Tyr11-S14 is added to the non-specific binding sample to give equal cpm in the two samples. Then 0.25 ml aliquots of each supernatant ([…]) are loaded onto 0.8×13 cm columns of Sephadex G-50. The columns are eluted at a flow rate of 0.7 ml/min with solubilization buffer + 1% BSA. 0.18 ml fractions are collected and counted for radioactivity.
0.18 ml samples are collected. […] The mixture is held on ice for 15 minutes.
[^125 I]Tyr11-S14 is bound to GH4 C1 membranes as described above ("Methods: Receptor Binding Methods, 4."), except that these binding assays contain 2 mg membrane protein in 8 ml (0.25 mg membrane protein/ml). Radioligand is […]. A non-specific binding sample is identical except for the addition of 1 uM cold S14. Initial cpm bound is 1.43×10^6 (total) and 0.65×10^6 (nonspecific). After the binding step, membranes are solubilized in solubilization buffer containing 0.2 mM CaCl2 and 1% CHAPS ("Methods: Membrane Solubilization"). CPM in the 100,000×g supernatants are 0.61×10^6 (total) and 0.29×10^6 (nonspecific). Free [^125 I]Tyr11-S14 is added to the nonspecific binding sample to give equal cpm in the two samples. Then 0.25 ml aliquots of each supernatant (75-80,000 cpm) are loaded onto 0.8×13 cm columns of Sephadex G-50. The columns are eluted as described in "Methods: Assay of Solubilized Receptors, 1." and the fractions counted for radioactivity.
A peak of high MW material eluting in the column void volume (peak I; 34% of total cpm) contain specifically bound radioactivity. […] Peak II in FIG. 1 represents free [^125 I]Tyr11-S14, and is the major peak in the nonspecific binding sample. In FIG. 1 it is important to note that just before applying samples to the columns, free [^125 I]Tyr11-S14 is added to the non-specific binding sample to equalize the cpm in the two samples. […] The GFB/PEI method is used in subsequent experiments.
0.25 ml samples containing solubilized R:L complex, from the preparation described in FIG. 1 are separated from free radioligand either by: (1) chromatography on Sephadex G-50 (see FIG. 1), (2) Precipitation with polyethyleneglycol+bovine gamma globulin with collection of the precipitates on GFB filters or (3) adsorption on polyethyleneimine-coated,GFB filters (for methods 2 and 3 see "Methods: Assay of Solubilized Receptors, 2 and 3"). Radioactivity recovered in peak I (Method 1) or on filters (Methods 2 and 3) is compared in the Table.

[3] abbreviates: GFB/PEI filters, triplicate, SE 5%.
The mark [4] stands for this setting: PEG precipitation, triplicate, SE 5%.

Where no end group is shown, it is not given here. The star is where a group is joined. 125I = [125I]*

T1 sequence (P30680 whole entry): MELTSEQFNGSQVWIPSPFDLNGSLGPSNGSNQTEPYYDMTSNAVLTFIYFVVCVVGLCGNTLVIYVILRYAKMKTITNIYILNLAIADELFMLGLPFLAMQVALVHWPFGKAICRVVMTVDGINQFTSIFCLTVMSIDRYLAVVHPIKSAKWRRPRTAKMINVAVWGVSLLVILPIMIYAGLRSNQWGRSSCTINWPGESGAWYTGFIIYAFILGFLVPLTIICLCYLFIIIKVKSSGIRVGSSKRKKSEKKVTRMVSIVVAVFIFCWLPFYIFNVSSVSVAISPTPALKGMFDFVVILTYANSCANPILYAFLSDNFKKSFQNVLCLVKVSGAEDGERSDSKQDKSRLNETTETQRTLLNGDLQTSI

For the substance “[^125 I]Tyr11-S14: non-biotinylated radioligand, [^125 I]Tyr11-S14 (AGCKNFFWKTY(125I)TSC; ends and bridges not checked; UniProt P61278 103-116, looked up, variant F11Y)”, the Kd in assay [1] is 100 pM. Also, in assay [2] (2 mg membrane protein in 8 ml, plus 1 uM cold S14), the “Initial cpm bound, nonspecific” value is 0.65×10^6 cpm. For the same substance, the “Initial cpm bound, total” value in assay [2] (2 mg membrane protein in 8 ml, total) was 1.43×10^6 cpm. Moreover, in assay [2] (1% CHAPS, Sephadex G-50), the “peak I (void volume) share of total cpm” value is on record as 34 % of total cpm. The “specifically bound ligand recovered, of initial specifically bound cpm on intact membranes” value in assay [2] (1% CHAPS, Sephadex G-50 peak I) came to 11%. Moreover, the “CPM in 100,000×g supernatant, nonspecific” value in assay [2] (1% CHAPS, plus 1 uM cold S14) is reported as 0.29×10^6 CPM. In addition, the “CPM in 100,000×g supernatant, total” value in assay [2] (1% CHAPS, total) is 0.61×10^6 CPM. The “Specifically bound ligand recovered (A-B)” value in assay [2] (GFB/PEI filters) was 20,340 CPM; in assay [2] (PEG precipitation), 17,272 CPM; in assay [2] (Sephadex G-50) it was 16,840 CPM. The “CPM recovered, B. Nonspecific” value is reported as 7,193 CPM in assay [2] (setting [3]), 7,803 CPM in assay [2] (setting [4]) and 9,104 CPM in assay [2] (Sephadex G-50). For the same substance, the “CPM recovered, A. Total” value in assay [2] (setting [3]) is on record as 27,533 CPM; in assay [2] (setting [4]), 23,075 CPM; in assay [2] (Sephadex G-50) it was 23,944 CPM.

One may read the Kd as a measure of binding affinity in units of concentration.

The values above are taken from patent US5225543A, “Receptors method for purification of G protein-linked” (priority 1991, dated 1993).
